For one data set, the system named is purified mouse T cells. Nature of the data set: ELISA quantification of depoted lipid conjugates per T cell. Format: cell-based. Conditions: for ng/mL (equivalent in solution): Table S1, estimated dose on depoted T cells; for # Ligands/T cell: Table S1, quantitation of cell surface TLR2 ligands by ELISA, depoted 10 μg/mL, 1 h; for fold increase in number of depoted molecules per T cell, 0.1 to 10 μg/mL depoting concentration: biotinylated ligand, cell lysate, streptavidin-HRP/TMB absorbance 450 nm, n = 3-4 independent samples. The protocol:
(§1) Unless specified otherwise (in Figure 2), splenocytes, isolated B cells, or isolated T cells were incubated with CpG (5 μM), lipid-CpG (5 μM), Pam2CSK4 (10 μg/mL), or Pam3CSK4 (10 μg/mL) for 1 h in complete RPMI 1640 media supplemented with 10% fetal bovine serum. Splenocytes or T cells were then washed 3 times with PBS plus 1% bovine serum albumin to remove unbound ligand.
One million purified T cells were depoted with FAM-labeled lipid-CpG, biotinylated Pam2CSK4, or biotinylated Pam3CSK4 as described above, and then lysed with Glo lysis buffer (Promega) for 10 min at 25°C. Lysates were collected and plated onto Nunc MaxiSorp ELISA plates (Thermo). After 2 h of incubation at 25°C, FAM-labeled lipid-CpG was excited at 488 nm, and fluorescent emission at 520 nm was quantified by a microplate fluorescence reader. For Pam2CSK4 and Pam3CSK4 samples, horseradish peroxidase (HRP)-labeled streptavidin was added for 2 h incubation at 25°C, and then TMB substrate (Thermo) was added to observe changes in absorbance at 450 nm with a microplate spectrophotometer (BioTek).

Data set [1] relates to bystander B cells (TLR2+ APCs). Nature of the data set: Bystander B-cell activation by TLR2 ligand-depoted T cells. It is filed as cell-based, mouse. Conditions: for CD69 upregulation on B cells (fold MFI) / MHC II upregulation on B cells (fold MFI): T cells depoted 10 μg/mL 1 h, co-culture with B cells 2 days, MFI normalized to unstimulated B cells, n = 5-6 independent experiments; for CD69 expression, depoted vs same dose of soluble ligand / MHC II expression, depoted vs same dose of soluble ligand: soluble dose 10 ng/mL Pam2CSK4, 2 ng/mL Pam3CSK4; for B-cell activation by dose-matched soluble ligand: 10 ng/mL Pam2CSK4, 2 ng/mL Pam3CSK4. How it is done:
as §1
Naïve or primed T cells were rested in complete RPMI 1640 media and supplemented with 10% FBS after depoting with Pam2CSK4 or Pam3CSK4 as described above. At selected time-points (0, 1, 2, 5, or 8 days post-depoting), T cells were washed and fixed with 4% paraformaldehyde (Sigma) for 15 min at 25°C. After washing 5 times with PBS + 1% BSA, at 1,000 × g for 5 min, T cells were cultured in complete RPMI 1640 media and supplemented with 10% FBS. Bystander B cells were added in co-cultures at a 1:1 B cell:T cell ratio. Naïve T cells without fixation were immediately cultured with bystander B cells. After 2 days of incubation at 37°C and 5% CO2, B-cell activation was measured by fluorescent staining for MHCII (clone M5/114.15.2; FITC) and CD69 (clone H1.2F3; PerCP/Cy5.5).

For another data set, the system named is polyclonal T cells. Nature of the data set: Cytokine quantification in T-cell supernatants by ELISA. Format: cell-based, mouse. Conditions: supernatants day 2, ELISA, αCD3/CD28 bead-stimulated T cells, n = 5. How it is done: (§2) Naïve T cells were labeled with 5 μM of carboxyfluorescein succinimidyl ester (CFSE, ThermoFisher). Labeled cells were cultured in RPMI 1640 media and supplemented with 10% FBS as well as αCD3/CD28 coated Dynabeads^TM (Thermo) at a 1:5 bead to T cell ratio after depoting of lipid-CpG, Pam2CSK4, and/or Pam3CSK4 ligands. Non-depoted T cells were treated with soluble lipid-CpG (5 μM), Pam2CSK4 (10 μg/mL), and/or Pam3CSK4 (10 μg/mL). Cell proliferation was measured by CFSE dilution after 3 days, and cell activation was measured by fluorescent staining for CD25 (clone PC61; PE). Cell proliferation index and division index were calculated using FlowJo LLC software. Proliferation index is defined as the total number of cell divisions divided by the number of divided cells, whereas division index is the total number of cell divisions divided by the number of total original cells ([24]). Paracrine-enhanced proliferation of bystander T cells was measured as described above, with αCD3/CD28 beads added at a 2:5 bead to T-cell ratio.
T-cell activation was analyzed by collecting supernatants on day 2 post-activation for IL-2, IL-4, and IFNγ quantification by ELISA per manufacturer's instructions (BioLegend).
Background: In an ELISA, binding on a coated surface is turned into a signal by an enzyme label.

The conditions of data set [2]: stated as much higher than the input concentration; cited from earlier work. An excerpt: Thus, multiple lipid tails are a key design parameter for membrane delivery, and may be a simple way to enhance delivery of cargo to plasma membranes. One explanation of lipid-mediated insertion of TLR2 lipid-ligands, i.e., Pam2CSK4 and Pam3CSK4, into plasma membr ...
For the next data set, the system named is CD4+ and CD8+ T cells. Nature of the data set: T-cell activation assay (CFSE proliferation, αCD3/CD28 beads). Format: cell-based, mouse. Conditions: αCD3/CD28 beads 3 days, CFSE dilution. How it is done:
as §2

Data set [3] deals with depoted and bystander CD4+ and CD8+ T cells. Nature of the data set: Paracrine-enhanced proliferation: depoted T cells co-cultured with bystander T cells. Format: cell-based, mouse. Conditions: αCD3/CD28 beads 3 days, n = 5. The protocol:
as §2

Where [4] appears, read: co-culture with depoted T cells.
Setting [5] is: co-culture with non-depoted T cells.

Pam2CSK4: in the data set with purified mouse T cells, the “ng/mL (equivalent in solution)” value was 9.6 ng/mL; the “# Ligands/T cell” value is given as 1.3E+07; the “fold increase in number of depoted molecules per T cell, 0.1 to 10 μg/mL depoting concentration” value was determined as 130 fold. Also, in data set [1], the “CD69 upregulation on B cells (fold MFI)” value is 3.8 fold; the “MHC II upregulation on B cells (fold MFI)” value is 19 fold; the “B-cell activation by dose-matched soluble ligand” value is “none of the dose-matched soluble Pam2CSK4 and Pam3CSK4 activated B cells”. In addition, in data set [1] (2 days co-culture), the “CD69 expression, depoted vs same dose of soluble ligand” value is 2.2 fold and the “MHC II expression, depoted vs same dose of soluble ligand” value is listed as 5.3 fold. Further, in the data set with polyclonal T cells, the “increase in IL-2 levels, depoted vs soluble ligand” value stood at 2.7 fold. Besides, the critical micelle concentration in data set [2] was more than 10 µg/mL.
As to Pam3CSK4, in the data set on purified mouse T cells, the “ng/mL (equivalent in solution)” value was 1.8 ng/mL; the “# Ligands/T cell” value stood at 2.0E+06; the “fold increase in number of depoted molecules per T cell, 0.1 to 10 μg/mL depoting concentration” value is on record as 2.2 fold. For the same substance, in data set [1] (2 days co-culture), the “MHC II expression, depoted vs 10 μg/mL of soluble ligand” value is 1.5 fold; the “CD69 expression, depoted vs same dose of soluble ligand” value came out at 2.8 fold; the “MHC II expression, depoted vs same dose of soluble ligand” value is listed as 6.1 fold. In data set [1], the “CD69 upregulation on B cells (fold MFI)” value is 4.4 fold; the “MHC II upregulation on B cells (fold MFI)” value stood at 21 fold; the “B-cell activation by dose-matched soluble ligand” value was “none of the dose-matched soluble Pam2CSK4 and Pam3CSK4 activated B cells”. The “CD8+ T-cell proliferation index, effect of depoting” value in the data set on CD4+ and CD8+ T cells (Figure S5) is reported as “did enhance”. Further, in the data set with CD4+ and CD8+ T cells (n = 3), the “CD4+ T-cell division index, depoted vs soluble ligand” value worked out at 1.9 fold and the “CD8+ T-cell division index, depoted vs soluble ligand” value is 2.9 fold. In data set [3] (setting [4]), the “bystander CD4+ T-cell division index vs soluble ligand” value is listed as 1.3 fold and the “bystander CD8+ T-cell division index vs soluble ligand” value was found to be 1.3 fold. In data set [3] (setting [5]), the “CD4+ T-cell division index of depoted cells vs soluble ligand” value came to 1.6 fold and the “CD8+ T-cell division index of depoted cells vs soluble ligand” value stood at 1.6 fold. In the data set with polyclonal T cells, the “increase in IL-2 levels, depoted vs soluble ligand” value is listed as 3.4 fold. Further, the critical micelle concentration in data set [2] was more than 10 µg/mL.

The record behind these values is paper PMC7212467, “Lipid-Mediated Insertion of Toll-Like Receptor (TLR) Ligands for Facile Immune Cell Engineering” (Frontiers in Immunology, 2020).
